Assay results: patent publication US12358948B2, “Neurotensinergic agonists and methods of using same preventing or treating pain” (priority 2019, dated 2025)
Where two headings read alike, the source gives them in different places. *1 amine or outer side, *2 acyl side, *3 side chain or, on linkers, in order; H or OH if unused. Where a SMILES comes first, the peptide text is derived from it. Bridges are numbered along the chain shown (N, C = ends). [ ]: non-standard residue; d: D form. ξ: configuration not given here. ξαMeNle(6-ylidene) = CC(CCCC=[*:3])(N[*:1])C(=O)[*:2]; Phe(4-CF3) = N[C@@H](Cc1ccc(C(F)(F)F)cc1)C(=O)O; Phe(4-Br) = N[C@@H](Cc1ccc(Br)cc1)C(=O)O; Phe(4-Cl) = N[C@@H](Cc1ccc(Cl)cc1)C(=O)O; Ala(cHept) = N[C@@H](CC1CCCCCC1)C(=O)O; Ala(cPent) = N[C@@H](CC1CCCC1)C(=O)O; dAllylGly = C=CC[C@@H](N)C(=O)O; AllylGly = C=CC[C@H](N)C(=O)O; Pen = CC(C)(S)[C@H](N)C(=O)O; R5 = C=CCCC[C@@](C)(N)C(=O)O; hLys = NCCCCC[C@H](N)C(=O)O; Orn = NCCC[C@H](N)C(=O)O; Dab = NCC[C@H](N)C(=O)O; Nva = CCC[C@H](N)C(=O)O

Experiments:
hNTS1 receptor = molecular target: T1, hNTS1 receptor (Homo sapiens, UniProt P30989); test: Competitive radioligand binding assay on the hNTS1 receptor; settings: membranes of CHO-K1 cells expressing hNTS1
T1 construct: membranes prepared from them
T1 sequence (P30989 whole entry): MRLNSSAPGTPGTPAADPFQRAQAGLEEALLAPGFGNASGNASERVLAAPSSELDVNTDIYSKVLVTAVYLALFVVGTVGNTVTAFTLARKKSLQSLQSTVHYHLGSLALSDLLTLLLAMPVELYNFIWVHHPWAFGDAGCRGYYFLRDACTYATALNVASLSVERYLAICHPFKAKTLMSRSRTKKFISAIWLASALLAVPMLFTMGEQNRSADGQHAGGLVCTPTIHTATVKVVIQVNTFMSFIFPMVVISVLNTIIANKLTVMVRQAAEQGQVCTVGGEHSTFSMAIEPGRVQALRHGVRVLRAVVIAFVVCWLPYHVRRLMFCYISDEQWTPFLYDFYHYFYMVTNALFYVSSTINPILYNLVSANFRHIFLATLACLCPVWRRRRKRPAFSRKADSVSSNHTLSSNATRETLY
In short: (§1)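 Membranes from CHO-K1 cells expressing hNTS1 (15 µg, […] ¹²⁵I-[Tyr³]-NT) or 1321N1 cells expressing hNTS2 (50 µg, […] radioligand) were incubated with analogues at 10⁻¹¹–10⁻⁴ M for 60 min at 25 °C in Tris-HCl pH 7.5/0.2% BSA. Filtration and γ-counting followed; nonspecific binding was defined with 10⁻⁵ M NT(8-13), and IC50 was obtained by one-site fit.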

hNTS2 receptor = molecular target: T2, hNTS2 receptor (Homo sapiens, UniProt O95665); test: Competitive radioligand binding assay on the hNTS2 receptor; settings: for IC50: membranes of 1321N1 cells expressing hNTS2; for Selectivity: ratio IC50 for NTS1 : IC50 for NTS2
T2 construct: membranes prepared from them
T2 sequence (O95665 whole entry): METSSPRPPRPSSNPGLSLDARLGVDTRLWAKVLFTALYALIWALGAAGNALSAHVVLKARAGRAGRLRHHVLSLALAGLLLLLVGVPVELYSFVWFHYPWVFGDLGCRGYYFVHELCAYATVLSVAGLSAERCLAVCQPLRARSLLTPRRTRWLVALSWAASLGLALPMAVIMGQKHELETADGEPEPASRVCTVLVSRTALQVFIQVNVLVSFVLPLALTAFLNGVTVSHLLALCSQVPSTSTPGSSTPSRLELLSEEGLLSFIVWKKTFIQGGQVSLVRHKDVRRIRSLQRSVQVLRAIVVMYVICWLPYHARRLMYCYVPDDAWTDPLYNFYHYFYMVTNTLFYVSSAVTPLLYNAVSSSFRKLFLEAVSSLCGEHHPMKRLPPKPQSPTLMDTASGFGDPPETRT
In short: as §1

Sprague-Dawley rats = test: Tail-flick test (acute thermal pain), intrathecal injection; type: in vivo, rat; settings: 61 nmol/kg i.t.
Protocol: Rats were housed two per cage on Aspen shavings in a quiet room and kept on a 12 h light/dark cycle and allowed ad libitum access to food and water. The experimental procedures in this study were approved by the Animal Care Committee of Université de Sherbrooke and were in accordance with policies and directives of the Canadian Council on Animal Care.
Tail-flick test: The tail flick test was used as outcome measures heat-induced pain in animals and as indicators of a compound's analgesic efficacy.
Acute pain was assessed using the Tail flick test (Tail Flick Analgesia meterV2.00, Colombus Instruments, Columbus, Ohio, USA). Tail flick test measures sensitivity to a high-intensity light beam focused on the rat tail. The tail flick apparatus was set at a light intensity of 6 and a cutoff of 10 seconds. The latency to flick the tail out of the path of the light beam corresponds to the measure of pain sensitivity or analgesia.
Before testing, animals were individually acclimatized to manipulations and behavioral apparatus 5 min/day for three consecutive days. On the test day, latencies baseline measures were taken before drug injection to provide a mean baseline. The compounds were diluted in 0.9% saline at the desired dose. The effects of the compound or saline on thermal nociception were assessed every 10 min for up to 60 min following i.t. administration.
Moreover, tail flick latencies were converted into the percent maximal possible effect (% MPE) at the time of maximal peak of analgesia. % MPE were calculated according to the following formula: % MPE=[(Test latency)−(Saline latency)]/[(Cutoff)−(Saline latency)]×100. Data are expressed as mean±SEM of 5-8 animals for each dose.
Then, ED50 values were determined using the dose-response stimulation log(agonist) vs response (four parameters).
Data are expressed as mean±standard errors of the mean (SEM). All graphs and statistical analysis were performed using GraphPad Prism™ 7 (GraphPad software, La Jolla, CA, USA). […] A two-way ANOVA followed by Tukey's multiple comparisons test was used to determine the significant differences in changes in body temperature between different concentrations of compounds and saline (FIG. 9). The % MPE for the tail-flick test and the areas under the curve for the formalin test were analyzed using a one-way ANOVA followed by a Dunnett's multiple comparisons test to compare different concentrations of compounds and saline treatment (FIGS. 2B, 4B, 7A-B and 8B-D). […] Nonlinear regression using three parameters was performed for % of ileum relaxation and IC50 value was obtained from the resulting dose-response curve (FIG. 11). A difference in response was considered significant with p-values *p<0.05, **p<0.01, ***p<0.001 and **p<0.0001.

[1] = IC50 NTS1, displacement of 125I-[Tyr3]-NT
[2] = IC50 NTS2, displacement of 125I-[Tyr3]-NT
[3] = displacement of 125I-[Tyr3]-NT, read-out: IC50 NTS1
[4] = displacement of 125I-[Tyr3]-NT, read-out: IC50 NTS2 (converted)

SMILES	IC50 (hNTS1 receptor; [1]) [nM]	IC50 (hNTS2 receptor; [2]) [nM]	Selectivity (hNTS2 receptor)	latency of the tail-flick reflex compared to baseline (Sprague-Dawley rats)	IC50 (hNTS1 receptor; [3]) [nM]	IC50 (hNTS2 receptor; [4]) [nM]	Acute pain (tail beam) (i.t.) (Sprague-Dawley rats; rat)
NCCCC[C@@H]1NC(=O)[C@H](CCCCN)NC(=O)[C@@H](N)CC=CC[C@@H](C(=O)N[C@@H](Cc2ccc(Br)cc2)C(=O)N[C@@H](CC2CCCC2)C(=O)O)NC1=O [compound 127, c[G(All)KKG(All)]F(4-bromo)A(cyclopentyl)] (H-[AllylGly]KK[AllylGly][Phe(4-Br)][Ala(cPent)]-OH; staple 1-4)	> 100000	2	49505	sustainably increased latency	–	–	–
CC(C)C[C@H](NC(=O)[C@H](Cc1ccc(O)cc1)NC(=O)[C@@H]1CC=CCCC(=O)N[C@@H](CCCCN)C(=O)N[C@@H](CCCCN)C(=O)N1)C(=O)O [compound 60, c[K(Pentenoyl)KG(All)]YL]	–	–	>2127.7	–	> 100000	47	No effect (61 nmol/kg)
CC1(C(=O)N[C@@H](Cc2ccc(Br)cc2)C(=O)N[C@@H](CC2CCCC2)C(=O)O)CCCC=CC[C@H](N)C(=O)N[C@@H](CCCCN)C(=O)N[C@@H](CCCCN)C(=O)N1 (stereo partly drawn) [compound 133, c[G(All)KKG(alpha-Me-(4-pentenyl))]F(4-bromo)A (cyclopentyl)] (H-[AllylGly]KK[ξαMeNle(6-ylidene)][Phe(4-Br)][Ala(cPent)]-OH; staple 1-4)	> 100000	3	33333	sustainably increased latency	–	–	–
CC(C)C[C@H](NC(=O)[C@H](Cc1ccc(Cl)cc1)NC(=O)[C@@H]1CC=CC[C@H](N)C(=O)N[C@@H](CCCCN)C(=O)N[C@@H](CCCCN)C(=O)N1)C(=O)O [compound 114, c[G(All)KKG(All)]F(4-chloro)L] (H-[AllylGly]KK[AllylGly][Phe(4-Cl)]L-OH; staple 1-4)	–	–	>2466	–	> 100000	40.6	–
CC(C)C[C@H](NC(=O)[C@H](Cc1ccc(C(F)(F)F)cc1)NC(=O)[C@@H]1CC=CC[C@H](N)C(=O)N[C@@H](CCCCN)C(=O)N[C@@H](CCCCN)C(=O)N1)C(=O)O [compound 111, c[G(All)KKG(All)]F(4-CF3)L] (H-[AllylGly]KK[AllylGly][Phe(4-CF3)]L-OH; staple 1-4)	–	–	>2087	–	> 100000	47.9	–
CCC[C@@H]1NC(=O)[C@H](CCCCN)NC(=O)[C@@H](N)CC=CC[C@@H](C(=O)N[C@@H](Cc2ccc(O)cc2)C(=O)N[C@@H](CC(C)C)C(=O)O)NC1=O [compound 58, c[G(All)KNvaG(All)]YL] (H-[AllylGly]K[Nva][AllylGly]YL-OH; staple 1-4)	–	–	>137	–	> 100000	729	–
CC(C)C[C@H](NC(=O)[C@H](Cc1ccc(O)cc1)NC(=O)[C@H]1NC(=O)[C@H](CCCCN)NC(=O)[C@H](CCCCN)NC(=O)[C@@H](N)CSSC1(C)C)C(=O)O [compound 153, c[CKKPen]YL] (H-CKK[Pen]YL-OH; disulfide 1-4)	–	–	2871	–	> 100000	34.8	–
NCCCC[C@@H]1NC(=O)[C@H](CCCCN)NC(=O)[C@@H](N)CC=CC[C@@H](C(=O)N[C@@H](Cc2ccc(O)cc2)C(=O)N[C@@H](CC2CCCCCC2)C(=O)O)NC1=O [compound 68, c[G(All)KKG(All)]YA(cycloheptyl)] (H-[AllylGly]KK[AllylGly]Y[Ala(cHept)]-OH; staple 1-4)	–	–	>14 600	–	> 100000	6.85	–
CC(C)C[C@H](NC(=O)[C@H](Cc1ccc(O)cc1)NC(=O)[C@H]1CC=CC[C@H](N)C(=O)N[C@@H](CCCCN)C(=O)N[C@@H](CCCCN)C(=O)N1)C(=O)O [compound 40, c[G(All)KKG*(All)]YL] (H-[AllylGly]KK[dAllylGly]YL-OH; staple 1-4)	–	–	>85	–	> 100000	1200	–
CC(C)C[C@H](NC(=O)[C@H](Cc1ccc(O)cc1)NC(=O)[C@@H]1CC=CC[C@H](N)C(=O)N[C@@H](Cc2c[nH]cn2)C(=O)N[C@@H](CCCCN)C(=O)N1)C(=O)O [compound 83, c[G(All)HKG(All)]YL] (H-[AllylGly]HK[AllylGly]YL-OH; staple 1-4)	–	–	>76	–	> 100000	1320	–
CC(C)C[C@H](NC(=O)[C@H](Cc1ccc(O)cc1)NC(=O)[C@@H]1CC=CCCC[C@@](C)(N)C(=O)N[C@@H](CCCCN)C(=O)N[C@@H](CCCCN)C(=O)N1)C(=O)O [compound 90, c[G*(alpha-Me-(4-Pentenyl))KKG(All)]YL] (H-[R5]KK[AllylGly]YL-OH; staple 1-4)	–	–	>1300	–	> 100000	76.9	–
CC(C)C[C@H](NC(=O)[C@H](Cc1ccc(O)cc1)NC(=O)[C@@H]1CC=CC[C@H](N)C(=O)N[C@@H](CCCCN)C(=O)N[C@@H](CCC(=O)O)C(=O)N1)C(=O)O [compound 61, c[G(All)KEG(All)]YL] (H-[AllylGly]KE[AllylGly]YL-OH; staple 1-4)	–	–	>8.	–	> 100000	12400	–
CC(C)C[C@H](NC(=O)[C@H](Cc1ccc(O)cc1)NC(=O)[C@@H]1CC=CC[C@H](N)C(=O)N[C@@H](CCCCN)C(=O)N[C@@H](CCCCCN)C(=O)N1)C(=O)O [compound 149, c[G(All)KhomolysineG(All)]YL] (H-[AllylGly]K[hLys][AllylGly]YL-OH; staple 1-4)	–	–	468	–	> 100000	214	–
CC(C)C[C@H](NC(=O)[C@H](Cc1ccc(O)cc1)NC(=O)[C@@H]1CC=CC[C@H](N)C(=O)N[C@@H](CCCCN)C(=O)N[C@@H](CCCN)C(=O)N1)C(=O)O [compound 51, c[G(All)KOrnG(All)]YL] (H-[AllylGly]K[Orn][AllylGly]YL-OH; staple 1-4)	–	–	>1422	–	> 100000	70.3	–
CC(C)C[C@H](NC(=O)[C@H](Cc1ccc(O)cc1)NC(=O)[C@@H]1CCC(=O)NCCCC[C@H](N)C(=O)N[C@@H](CCCCN)C(=O)N[C@@H](CCCCN)C(=O)N1)C(=O)O [compound 101, c[KKKE]YL] (H-KKKEYL-OH; lactam 1-4)	–	–	>111	–	> 100000	889	–
NCCCC[C@@H]1NC(=O)CCC=CC[C@@H](C(=O)N[C@@H](Cc2ccc(O)cc2)C(=O)N[C@@H](CC2CCCC2)C(=O)O)NC(=O)[C@H](CCCCN)NC1=O [compound 129, c[pK(pentenoyl)KG(All)]Y A(cyclopentyl)]	–	–	7194	–	> 100000	13.9	–
CC(C)C[C@H](NC(=O)[C@H](Cc1ccc(O)cc1)NC(=O)[C@@H]1CC=CC[C@H](N)C(=O)N[C@@H](CCN)C(=O)N[C@@H](CCCCN)C(=O)N1)C(=O)O [compound 80, c[G(All)DabKG(All)]YL] (H-[AllylGly][Dab]K[AllylGly]YL-OH; staple 1-4)	–	–	>729	–	> 100000	137	–
